# Reference: patent US9156822B2, “Functionally selective ligands of dopamine D2 receptors” (The University of North Carolina at Chapel Hill, priority 2010, dated 2015)
# “Also recorded” adds a separate entry of the source. Like-named read-outs stand apart in the source and are kept apart here.
# Key:
# C57BL/6 mice = settings: i.p., 3 mg/kg D-amphetamine
# hD2 receptors = hD2 receptors (Homo sapiens (Human), UniProt P14416); assay: D2 mediated cAMP GloSensor assay; assay type: cell-based
# [1] = mouse
# 5HT2B [2] = target: T1, 5HT2B (Homo sapiens (Human), UniProt P41595); assay: biochemical
# D2 receptors [3] = target: T2, D2 receptors (Homo sapiens (Human), UniProt P14416); assay: CHO-D2 radioligand binding assay ([3H]N-methylspiperone competition)
# Target sequence in this assay (P14416 whole entry): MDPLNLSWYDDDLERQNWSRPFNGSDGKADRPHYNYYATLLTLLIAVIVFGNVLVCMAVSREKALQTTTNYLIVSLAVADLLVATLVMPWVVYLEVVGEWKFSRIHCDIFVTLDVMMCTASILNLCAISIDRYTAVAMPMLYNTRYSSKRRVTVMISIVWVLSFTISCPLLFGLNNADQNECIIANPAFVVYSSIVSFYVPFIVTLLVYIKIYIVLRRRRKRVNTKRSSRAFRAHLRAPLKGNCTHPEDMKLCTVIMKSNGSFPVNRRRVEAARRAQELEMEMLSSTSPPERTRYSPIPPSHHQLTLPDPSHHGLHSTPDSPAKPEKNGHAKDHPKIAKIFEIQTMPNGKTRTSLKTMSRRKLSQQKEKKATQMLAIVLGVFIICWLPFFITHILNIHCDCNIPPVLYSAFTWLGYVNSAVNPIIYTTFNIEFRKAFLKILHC
# 5HT1A [4] = target: T3, 5HT1A (Homo sapiens (Human), UniProt P08908); assay: 5HT1A binding; settings: read-out: 5HT1A/binding (Ki)
# H1-histamine receptor = H1-histamine receptor (Homo sapiens (Human), UniProt P35367); assay: H1 binding
# 5HT2B [5] = target: T1, 5HT2B; assay: cell-based
# 5HT2C [6] = target: T4, 5HT2C (Homo sapiens (Human), UniProt P28335); settings: read-out: 5HT2C/binding (Ki)
# 5HT2B [7] = target: T1, 5HT2B
# D4 dopamine receptor = D4 dopamine receptor (Homo sapiens (Human), UniProt P21917); settings: read-out: D4/binding (Ki)
# D2 receptors [8] = target: T2, D2 receptors; assay: D2 β-arrestin recruitment (Tango) assay; assay type: cell-based
# Experimental: The next day, cells were plated in white, clear-bottom, 384-well plates (Greiner, 10,000 cells/well, 50 μl/well) in DMEM containing 1% dialyzed fetal bovine serum. […] Data were normalized to vehicle (0%) and quinpirole (100%) controls and regressed using the sigmoidal dose-response function built into GraphPad Prism 4.0.
# Target sequence in this assay (P14416 whole entry, looked up): as the sequence (P14416 whole entry) above
# D3-dopamine receptor = D3-dopamine receptor (Homo sapiens (Human), UniProt P35462); settings: read-out: D3/binding (Ki)
# [9] = test system: wild-type and β-arrestin-2 knockout mice; settings: i.p., 5.0 mg/kg (haloperidol 2.0 mg/kg), 30 and 60 min, listed as UNC9975
# 5HT2A [10] = target: T5, 5HT2A (Homo sapiens (Human), UniProt P28223); assay: 5HT2A FLIPR (Ca2+ mobilization); assay type: cell-based
# hD2L dopamine receptor = hD2L dopamine receptor (Homo sapiens (Human), UniProt P14416); assay: pERK high-content assay; assay type: cell-based; settings: normalized to dopamine; read-out: p-ERK Emax
# Experimental: On day 1 of the assay, cells were seeded onto black clear-bottom tissue culture-treated 96-well plates (Greiner, BioOne). On day 2 of the assay, cells were washed with serum-free medium (Ham's F-12, penicillin and streptomycin) and incubated in 100 μL serum-free medium overnight.
# Immunofluorescence: Automatic multichannel pipetters were used for liquid handling and multichannel vacuum manifolds for aspirations. Each tested concentration was typically measured in triplicate or quadruplicate. For concentration curves, half-log-dilutions were used. Drug dilutions were prepared in stimulation medium (serum-free medium, 100 mg/L ascorbic acid). 100 μM dopamine and 1 μM PMA (phorbol 12-myristate 13-acetate) were used as positive controls. Medium only was used as a negative control. Specificity of the response was confirmed by pretreatment for 5 min with 10 μM of the antagonist spiperone and in experiments using wild type CHO cells.
# Cells were stimulated on day 3 by fast addition of 50 μL equilibrated 3× drug dilutions in a tissue culture incubator for 5 min. Plates were placed on ice, the medium was aspirated, and 100 μL/well of freshly prepared ice-cold fixing buffer (4% formaldehyde and 0.5 mM CaCl2 in PBS) solution was added. After 30 min fixing at room temperature, the plates were washed with 350 μL/well PBS/Ca (0.5 mM CaCl2 in PBS) and permeabilized for 20 min in 100 μL/well 0.3% Triton X-100 in PBS/Ca. […] Plates were washed three times with 250 μL/well washing buffer, post-fixed for 10 min in fixing buffer, washed with 250 μl PBS/Ca, filled with 200 μL/well PBS/Ca, sealed with transparent adhesive plate seals, and stored at 4° C.
# The Alexa594 light path was used for the target signal, Alexa488 for whole cell staining, and Hoechst for the nuclear staining. Images were analyzed using the CellProfiler software. […] Concentration curves were analyzed in GraphPad Prism by fitting against a sigmoidal dose-response model and normalization to the dopamine curve.
# in vivo = settings: mouse
# 5HT2C [11] = target: T4, 5HT2C; assay: biochemical
# 5HT2A [12] = target: T5, 5HT2A; assay: biochemical
# 5HT1A [13] = target: T3, 5HT1A; assay: 5HT1A cAMP biosensor; assay type: cell-based
# 5HT2B [14] = target: T1, 5HT2B; settings: read-out: 5HT2B/binding (Ki)
# 5HT2A [15] = target: T5, 5HT2A; settings: read-out: 5HT2A/binding (Ki)
# [16] = test system: wild-type and β-arrestin-2 knockout mice; settings: i.p., 6 mg/kg PCP
# D1 dopamine receptor = D1 dopamine receptor (Homo sapiens (Human), UniProt P21728); settings: read-out: D1/binding (Ki)
# D5 dopamine receptor = D5 dopamine receptor (Homo sapiens (Human), UniProt P21918); settings: read-out: D5/binding (Ki)
# 5HT2C [17] = target: T4, 5HT2C; assay: 5HT2C FLIPR (Ca2+ mobilization); assay type: cell-based
# T1 sequence (P41595 whole entry, species assumed): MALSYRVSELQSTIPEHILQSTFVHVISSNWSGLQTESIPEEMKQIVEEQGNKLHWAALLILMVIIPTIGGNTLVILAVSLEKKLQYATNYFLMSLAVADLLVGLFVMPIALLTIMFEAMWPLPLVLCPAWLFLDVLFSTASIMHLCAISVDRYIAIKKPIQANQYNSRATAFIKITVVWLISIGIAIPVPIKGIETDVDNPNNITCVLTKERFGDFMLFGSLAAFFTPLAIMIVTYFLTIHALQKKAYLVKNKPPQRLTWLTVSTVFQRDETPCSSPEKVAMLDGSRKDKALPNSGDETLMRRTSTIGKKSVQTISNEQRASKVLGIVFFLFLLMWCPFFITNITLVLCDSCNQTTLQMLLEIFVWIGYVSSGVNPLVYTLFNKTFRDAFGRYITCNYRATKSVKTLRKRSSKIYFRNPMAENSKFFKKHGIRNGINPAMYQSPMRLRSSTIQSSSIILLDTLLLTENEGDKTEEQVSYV
# T4 sequence (P28335 33-458, species assumed): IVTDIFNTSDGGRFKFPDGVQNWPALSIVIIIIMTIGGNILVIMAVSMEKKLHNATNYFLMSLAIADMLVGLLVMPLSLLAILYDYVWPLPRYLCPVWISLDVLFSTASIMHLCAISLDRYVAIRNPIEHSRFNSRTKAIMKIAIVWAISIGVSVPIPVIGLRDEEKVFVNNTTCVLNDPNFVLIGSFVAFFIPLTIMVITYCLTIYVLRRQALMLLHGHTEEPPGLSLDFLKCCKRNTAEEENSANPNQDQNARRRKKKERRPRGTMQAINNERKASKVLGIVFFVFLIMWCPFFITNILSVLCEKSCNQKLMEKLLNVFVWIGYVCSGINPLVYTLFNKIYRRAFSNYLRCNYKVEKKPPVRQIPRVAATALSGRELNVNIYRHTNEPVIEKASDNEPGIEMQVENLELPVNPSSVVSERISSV
# Sequence of hD2 receptors (P14416 whole entry): as the sequence (P14416 whole entry) above
# Sequence of D1 dopamine receptor (P21728 whole entry): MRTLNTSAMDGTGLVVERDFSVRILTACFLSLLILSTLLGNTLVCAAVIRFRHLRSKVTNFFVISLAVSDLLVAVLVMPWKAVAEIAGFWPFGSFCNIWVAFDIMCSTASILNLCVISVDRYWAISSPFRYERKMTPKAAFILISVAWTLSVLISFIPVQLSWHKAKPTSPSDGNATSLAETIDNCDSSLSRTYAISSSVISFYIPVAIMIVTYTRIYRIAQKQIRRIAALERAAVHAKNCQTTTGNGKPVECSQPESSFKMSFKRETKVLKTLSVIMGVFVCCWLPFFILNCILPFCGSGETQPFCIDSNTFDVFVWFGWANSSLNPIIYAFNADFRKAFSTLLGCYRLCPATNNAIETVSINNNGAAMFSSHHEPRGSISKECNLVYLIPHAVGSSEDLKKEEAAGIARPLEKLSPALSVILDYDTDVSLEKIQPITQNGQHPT
# Sequence of H1-histamine receptor (P35367 whole entry): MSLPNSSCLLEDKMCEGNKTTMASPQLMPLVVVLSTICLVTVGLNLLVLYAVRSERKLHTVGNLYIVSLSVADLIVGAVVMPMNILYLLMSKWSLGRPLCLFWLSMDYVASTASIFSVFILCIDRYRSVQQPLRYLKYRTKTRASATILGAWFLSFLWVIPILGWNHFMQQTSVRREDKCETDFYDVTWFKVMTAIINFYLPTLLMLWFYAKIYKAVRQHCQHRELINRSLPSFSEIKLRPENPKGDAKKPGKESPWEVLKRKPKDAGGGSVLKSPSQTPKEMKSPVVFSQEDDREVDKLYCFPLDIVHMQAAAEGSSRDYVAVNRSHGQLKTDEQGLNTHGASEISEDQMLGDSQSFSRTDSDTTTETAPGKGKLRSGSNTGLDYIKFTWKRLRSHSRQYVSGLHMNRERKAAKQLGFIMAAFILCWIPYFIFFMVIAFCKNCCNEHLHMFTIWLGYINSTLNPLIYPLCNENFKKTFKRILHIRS
# Sequence of D5 dopamine receptor (P21918 whole entry): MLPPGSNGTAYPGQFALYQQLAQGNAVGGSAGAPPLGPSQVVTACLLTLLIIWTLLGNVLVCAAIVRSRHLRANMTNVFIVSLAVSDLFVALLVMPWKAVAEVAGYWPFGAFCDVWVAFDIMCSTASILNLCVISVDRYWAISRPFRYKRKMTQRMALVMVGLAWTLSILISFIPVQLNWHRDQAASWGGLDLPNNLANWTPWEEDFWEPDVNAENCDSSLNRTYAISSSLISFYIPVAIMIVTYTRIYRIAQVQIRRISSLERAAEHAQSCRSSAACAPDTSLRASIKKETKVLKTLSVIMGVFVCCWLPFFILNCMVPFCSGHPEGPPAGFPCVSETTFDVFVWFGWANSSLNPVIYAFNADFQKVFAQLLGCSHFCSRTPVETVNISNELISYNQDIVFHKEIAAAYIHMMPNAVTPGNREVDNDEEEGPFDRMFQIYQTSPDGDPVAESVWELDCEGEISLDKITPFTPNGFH
# Sequence of D4 dopamine receptor (P21917 whole entry): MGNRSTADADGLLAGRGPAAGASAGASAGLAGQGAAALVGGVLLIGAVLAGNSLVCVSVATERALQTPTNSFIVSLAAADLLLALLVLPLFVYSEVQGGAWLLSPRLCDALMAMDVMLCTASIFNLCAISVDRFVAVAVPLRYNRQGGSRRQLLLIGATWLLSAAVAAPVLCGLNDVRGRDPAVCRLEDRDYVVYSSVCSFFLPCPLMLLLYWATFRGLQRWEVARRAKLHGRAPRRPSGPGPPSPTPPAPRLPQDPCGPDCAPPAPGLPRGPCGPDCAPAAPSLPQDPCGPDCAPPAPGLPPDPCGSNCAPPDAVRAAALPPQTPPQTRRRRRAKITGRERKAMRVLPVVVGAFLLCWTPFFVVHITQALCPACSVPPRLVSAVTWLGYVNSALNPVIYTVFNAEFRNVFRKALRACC
# Sequence of hD2L dopamine receptor (P14416 whole entry): as the sequence (P14416 whole entry) above
# Sequence of D3-dopamine receptor (P35462 whole entry): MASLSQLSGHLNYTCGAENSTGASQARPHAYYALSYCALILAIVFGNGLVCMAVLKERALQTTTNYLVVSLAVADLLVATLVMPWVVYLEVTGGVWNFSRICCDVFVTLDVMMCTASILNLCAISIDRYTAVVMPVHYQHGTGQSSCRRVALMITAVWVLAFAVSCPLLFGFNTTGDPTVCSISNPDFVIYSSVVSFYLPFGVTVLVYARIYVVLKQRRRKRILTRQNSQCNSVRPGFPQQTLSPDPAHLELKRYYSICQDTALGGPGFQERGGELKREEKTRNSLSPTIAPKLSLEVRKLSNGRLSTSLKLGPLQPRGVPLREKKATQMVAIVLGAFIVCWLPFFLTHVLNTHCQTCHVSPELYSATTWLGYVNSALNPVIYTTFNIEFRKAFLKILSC
smiles,measurement,setting,value
"O=C1CCc2ccc(OCCCCN3CCCN(c4cccc(Cl)c4Cl)CC3)nc2N1 [Compound 3, 7-(4-(4-(2,3-dichlorophenyl)-1,4-diazepan-1-yl)butoxy)-3,4-dihydro-1,8-naphthyridin-2(1H)-one]",antipsychotic-like activity in D-amphetamine-induced hyperlocomotion,C57BL/6 mice,potent antipsychotic-like activity
same,EC50,hD2 receptors,13 nM
same,Emax,hD2 receptors; read-out: cAMP (GloSensor) Emax,-94%
same,"brain exposure level, fold lower compared to aripiprazole",[1],about 3 fold
same,Brain/Plasma Ratio,[1]; 0.08 h,0.57 mL/g
same,Brain/Plasma Ratio,[1]; 0.5 h,1.12 mL/g
same,Brain/Plasma Ratio,[1]; 1 h,1.29 mL/g
same,Brain/Plasma Ratio,[1]; 2 h,3.67 mL/g
same,Brain/Plasma Ratio,[1]; 4 h,12.26 mL/g
same,Brain/Plasma Ratio,[1]; […],0.80 mL/g
same,Ki,5HT2B [2],0.6 to 250 nM
same,Ki,"D2 receptors [3]; Table 7, read-out: D2/binding (Ki)",< 10 nM
same,Ki,D2 receptors [3]; read-out: D2/binding (Ki),2.6 nM
same,Ki,D2 receptors [3]; read-out: D2 Binding Ki ± SEM,1.2 ± 0.1 nM
same,Ki,5HT1A [4],29 nM
same,Ki,H1-histamine receptor,6.1 nM
same,IC50,5HT2B [5],76 nM
same,Ki,5HT2C [6],99 nM
same,functional mode at 5HT2B,5HT2B [7],antagonists
same,Ki,D4 dopamine receptor,178 nM
same,β-arrestin (Tango) % activ at 1 μM,D2 receptors [8]; 1 μM,11%
same,EC50,"D2 receptors [8]; HTLA cells, read-out: β-arrestin (Tango) EC50",3.3 nM
same,Emax,D2 receptors [8]; normalized to quinpirole (100%),44%
same,Ki,D3-dopamine receptor,11 nM
same,"catalepsy (latency to move, inclined screen test)",[9]; wild-type mice,do not induce catalepsy
same,"catalepsy (latency to move, inclined screen test)",[9]; β-arrestin-2 knockout mice,induced catalepsy; also recorded: inducing catalepsy
same,IC50,5HT2A [10],660 nM
same,functional mode at 5HT2A,5HT2A [10],antagonists
same,Emax,hD2L dopamine receptor,< 5%
same,AUC(0-inf),in vivo; brain,329 ng·h/mL
same,AUC(0-t),in vivo; brain,267 ng·h/mL
same,Cmax,in vivo; brain,49.8 ng/mL
same,Tmax,in vivo; brain,15 min
same,concentration at 0.08 h,in vivo; brain,37.8 ng/g
same,concentration at 0.5 h,in vivo; brain,27.2 ng/g
same,concentration at 1 h,in vivo; brain,31.2 ng/g
same,concentration at 2 h,in vivo; brain,23 ng/g
same,concentration at 4 h,in vivo; brain,16.9 ng/g
same,concentration at 8 h,in vivo; brain,9.9 ng/g
same,concentration at 24 h,in vivo; brain,4.2 ng/g
same,half-life,in vivo; brain,636 min
same,AUC(0-inf),in vivo; plasma,61.5 ng·h/mL
same,AUC(0-t),in vivo; plasma,59.9 ng·h/mL
same,Cmax,in vivo; plasma,70.6 ng/mL
same,Tmax,in vivo; plasma,4.8 min
same,concentration at 0.08 h,in vivo; plasma,70.6 ng/mL
same,concentration at 0.5 h,in vivo; plasma,23.7 ng/mL
same,concentration at 1 h,in vivo; plasma,24.6 ng/mL
same,concentration at 2 h,in vivo; plasma,6.3 ng/mL
same,concentration at 4 h,in vivo; plasma,1.4 ng/mL
same,concentration at 8 h,in vivo; plasma,0 ng/mL
same,concentration at 24 h,in vivo; plasma,0 ng/mL
same,half-life,in vivo; plasma,48.6 min
same,Ki,5HT2C [11],0.6 to 250 nM
same,Ki,5HT2A [12],0.6 to 250 nM
same,EC50,5HT1A [13]; read-out: 5HT1A/cAMP (EC50),1800 nM
same,EC50,"5HT1A [13]; text bound, read-out: 5HT1A EC50 (weak agonists)",> 1000 nM
same,Ki,5HT2B [14],1.1 nM
same,Ki,5HT2A [15],7.4 nM
same,antipsychotic-like activity in PCP-induced hyperlocomotion,[16]; wild-type mice,potent antipsychotic-like activity
same,antipsychotic-like activity in PCP-induced hyperlocomotion,[16]; β-arrestin-2 knockout mice,attenuated
same,Ki,D1 dopamine receptor,1040 nM
same,Ki,D5 dopamine receptor,513 nM
same,functional mode at 5HT2C,5HT2C [17],antagonists
same,IC50,5HT2C [17]; read-out: 5HT2C/FLIPR (IC50),2200 nM
